Measurements reported in ChEMBL document CHEMBL1201862, “PubChem BioAssay data set” (2004).
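Tested at 5 concentrations; 48 h exposure; 96-well plates; endpoints linearly interpolated, else capped at highest concentration. GI50 is the concentration that inhibits growth by half.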 Activity calls are given as the source filed them. No stated cut-off is given here; in the data, active = GI50 up to about 1.1 µM and inactive = higher.

Tests used:
Experiment in all cases: DTP human tumour cell line panel, 48 h
EKVX = system: EKVX
UACC-62 = system: UACC-62
T47D = system: T47D
NCI-H460 = system: NCI-H460
KM12 = system: KM12
HT-29 = system: HT-29
SK-MEL-28 = system: SK-MEL-28
M14 = system: M14
MDA-MB-231 = system: MDA-MB-231
HOP-92 = system: HOP-92
U-251 = system: U-251
CAKI-1 = system: CAKI-1
K562 = system: K562
OVCAR-8 = system: OVCAR-8
UO-31 = system: UO-31
NCI/ADR-RES = system: NCI/ADR-RES
786-0 = system: 786-0
OVCAR-3 = system: OVCAR-3
SR = system: SR
SF-295 = system: SF-295
SF-539 = system: SF-539
UACC-257 = system: UACC-257
SNB-19 = system: SNB-19
MDA-MB-435 = system: MDA-MB-435
MCF7 = system: MCF7
SF-268 = system: SF-268
HL-60 = system: HL-60
LOX IMVI = system: LOX IMVI
IGROV-1 = system: IGROV-1
NCI-H226 = system: NCI-H226
A549 = system: A549
ACHN = system: ACHN
NCI-H23 = system: NCI-H23
MOLT-4 = system: MOLT-4
SK-OV-3 = system: SK-OV-3
RPMI-8226 = system: RPMI-8226
TK-10 = system: TK-10
COLO 205 = system: COLO 205
PC-3 = system: PC-3
Hs-578T = system: Hs-578T
SNB-75 = system: SNB-75
RXF 393 = system: RXF 393
SK-MEL-2 = system: SK-MEL-2
OVCAR-5 = system: OVCAR-5
HOP-62 = system: HOP-62
MDA-N = system: MDA-N
DU-145 = system: DU-145
SW-620 = system: SW-620
HCT-116 = system: HCT-116
HCT-15 = system: HCT-15
HCC 2998 = system: HCC 2998
SN12C = system: SN12C
NCI-H522 = system: NCI-H522
CCRF-CEM = system: CCRF-CEM
SK-MEL-5 = system: SK-MEL-5
OVCAR-4 = system: OVCAR-4

COc1cc(-c2cc(=O)c3cc4c(cc3[nH]2)OCO4)cc(OC)c1O
GI50 (EKVX): > 10 µM (inactive)
GI50 (UACC-62): > 10 µM (inactive)
GI50 (T47D): > 10 µM (inactive)
GI50 (NCI-H460): > 10 µM (inactive)
GI50 (KM12): > 10 µM (inactive)
GI50 (HT-29): > 10 µM (inactive)
GI50 (SK-MEL-28): > 10 µM (inactive)
GI50 (M14): > 10 µM (inactive)
GI50 (MDA-MB-231): > 10 µM (inactive)
GI50 (HOP-92): > 10 µM (inactive)
GI50 (U-251): > 10 µM (inactive)
GI50 (CAKI-1): > 10 µM (inactive)
GI50 (K562): > 10 µM (inactive)
GI50 (OVCAR-8): > 10 µM (inactive)
GI50 (UO-31): > 10 µM (inactive)
GI50 (NCI/ADR-RES): > 10 µM (inactive)
GI50 (786-0): > 10 µM (inactive)
GI50 (OVCAR-3): > 10 µM (inactive)
GI50 (SR): > 10 µM (inactive)
GI50 (SF-295): > 10 µM (inactive)
GI50 (SF-539): > 10 µM (inactive)
GI50 (UACC-257): > 10 µM (inactive)
GI50 (SNB-19): > 10 µM (inactive)
GI50 (MDA-MB-435): > 10 µM (inactive)
GI50 (MCF7): > 10 µM (inactive)
GI50 (SF-268): > 10 µM (inactive)
GI50 (HL-60): > 10 µM (inactive)
GI50 (LOX IMVI): > 10 µM (inactive)
GI50 (IGROV-1): > 10 µM (inactive)
GI50 (NCI-H226): > 10 µM (inactive)
GI50 (A549): > 10 µM (inactive)
GI50 (ACHN): > 10 µM (inactive)
GI50 (NCI-H23): > 10 µM (inactive)
GI50 (MOLT-4): > 10 µM (inactive)
GI50 (SK-OV-3): > 10 µM (inactive)
GI50 (RPMI-8226): > 10 µM (inactive)
GI50 (TK-10): > 10 µM (inactive)
GI50 (COLO 205): > 10 µM (inactive)
GI50 (PC-3): > 10 µM (inactive)
GI50 (Hs-578T): > 10 µM (inactive)
GI50 (SNB-75): > 10 µM (inactive)
GI50 (RXF 393): > 10 µM (inactive)
GI50 (SK-MEL-2): > 10 µM (inactive)
GI50 (OVCAR-5): > 10 µM (inactive)
GI50 (HOP-62): > 10 µM (inactive)
GI50 (MDA-N): > 10 µM (inactive)
GI50 (DU-145): > 10 µM (inactive)
GI50 (SW-620): > 10 µM (inactive)
GI50 (HCT-116): > 10 µM (inactive)
GI50 (HCT-15): > 10 µM
GI50 (HCC 2998): > 10 µM (inactive)
GI50 (SN12C): > 10 µM (inactive)
GI50 (NCI-H522): > 10 µM (inactive)
GI50 (CCRF-CEM): > 10 µM (inactive)
GI50 (SK-MEL-5): > 10 µM (inactive)
GI50 (OVCAR-4): > 10 µM (inactive)
